From the supplement of paper PMC10307832

Key:
Experiment in all cases: relative viability (nuclei count vs DMSO), 5 days (fraction); higher = more cells survive
[1] = test system: CAL-12T
Outline: (§1)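 Five library-drug doses in √10 steps were combined with a fixed anchor-drug dose, or a single drug was given alone, by pin tool to lung cancer cell lines in 1536-well plates the day after seeding. Nuclei were stained and counted after 5 days. Relative viability is the nuclei count in treated wells over that in vehicle wells, taken as the median of duplicate plates.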

[2] = test system: EKVX
Outline: as §1

[3] = test system: H3255
Outline: as §1

[4] = test system: HCC-15
Outline: as §1

[5] = test system: HCC-827
Outline: as §1

[6] = test system: LCLC-97TM1
Outline: as §1

[7] = test system: LK-2
Outline: as §1

[8] = test system: NCI-H1355
Outline: as §1

[9] = test system: NCI-H1563
Outline: as §1

[10] = test system: NCI-H1650
Outline: as §1

[11] = test system: NCI-H1734
Outline: as §1

[12] = test system: NCI-H1755
Outline: as §1

[13] = test system: NCI-H1975
Outline: as §1

[14] = test system: NCI-H2228
Outline: as §1

[15] = test system: NCI-H2342
Outline: as §1

[16] = test system: NCI-H2405
Outline: as §1

[17] = test system: NCI-H322M
Outline: as §1

[18] = test system: NCI-H520
Outline: as §1

[19] = test system: NCI-H661
Outline: as §1

[20] = test system: PC-14
Outline: as §1

[21] = test system: PC-3 [JPC-3]
Outline: as §1

[22] = test system: RERF-LC-KJ
Outline: as §1

## Nc1ccn([C@@H]2O[C@H](CO)[C@@H](O)[C@@H]2O)c(=O)n1 [Cytarabine] + CCNC(=O)c1noc(-c2cc(C(C)C)c(O)cc2O)c1-c1ccc(CN2CCOCC2)cc1 [Luminespib] (partner 0.01 µM)
[1]; first compound 0.005 µM
  relative viability: 0.227
[1]; first compound 0.01581 µM
  relative viability: 0.288
[1]; first compound 0.05 µM
  relative viability: 0.64
[1]; first compound 0.1581 µM
  relative viability: 0.217
[1]; first compound 0.5 µM
  relative viability: 0.178
[2]; first compound 0.005 µM
  relative viability: 0.918
[2]; first compound 0.01581 µM
  relative viability: 0.743
[2]; first compound 0.05 µM
  relative viability: 0.736
[2]; first compound 0.1581 µM
  relative viability: 0.287
[2]; first compound 0.5 µM
  relative viability: 0.186
[3]; first compound 0.005 µM
  relative viability: 0.98
[3]; first compound 0.01581 µM
  relative viability: 0.763
[3]; first compound 0.05 µM
  relative viability: 0.69
[3]; first compound 0.1581 µM
  relative viability: 0.662
[3]; first compound 0.5 µM
  relative viability: 0.554
[4]; first compound 0.005 µM
  relative viability: 0.328
[4]; first compound 0.01581 µM
  relative viability: 0.416
[4]; first compound 0.05 µM
  relative viability: 0.354
[4]; first compound 0.1581 µM
  relative viability: 0.428
[4]; first compound 0.5 µM
  relative viability: 0.267
[5]; first compound 0.005 µM
  relative viability: 0.591
[5]; first compound 0.01581 µM
  relative viability: 0.396
[5]; first compound 0.05 µM
  relative viability: 0.336
[5]; first compound 0.1581 µM
  relative viability: 0.154
[5]; first compound 0.5 µM
  relative viability: 0.144
[6]; first compound 0.005 µM
  relative viability: 0.742
[6]; first compound 0.01581 µM
  relative viability: 0.69
[6]; first compound 0.05 µM
  relative viability: 0.709
[6]; first compound 0.1581 µM
  relative viability: 0.318
[6]; first compound 0.5 µM
  relative viability: 0.344
[7]; first compound 0.005 µM
  relative viability: 0.193
[7]; first compound 0.01581 µM
  relative viability: 0.187
[7]; first compound 0.05 µM
  relative viability: 0.197
[7]; first compound 0.1581 µM
  relative viability: 0.155
[7]; first compound 0.5 µM
  relative viability: 0.176
[8]; first compound 0.005 µM
  relative viability: 0.612
[8]; first compound 0.01581 µM
  relative viability: 0.734
[8]; first compound 0.05 µM
  relative viability: 0.623
[8]; first compound 0.1581 µM
  relative viability: 0.344
[8]; first compound 0.5 µM
  relative viability: 0.402
[9]; first compound 0.005 µM
  relative viability: 0.628
[9]; first compound 0.01581 µM
  relative viability: 0.506
[9]; first compound 0.05 µM
  relative viability: 0.432
[9]; first compound 0.1581 µM
  relative viability: 0.407
[9]; first compound 0.5 µM
  relative viability: 0.455
[10]; first compound 0.005 µM
  relative viability: 0.208
[10]; first compound 0.01581 µM
  relative viability: 0.181
[10]; first compound 0.05 µM
  relative viability: 0.254
[10]; first compound 0.1581 µM
  relative viability: 0.218
[10]; first compound 0.5 µM
  relative viability: 0.209
[11]; first compound 0.005 µM
  relative viability: 0.251
[11]; first compound 0.01581 µM
  relative viability: 0.162
[11]; first compound 0.05 µM
  relative viability: 0.138
[11]; first compound 0.1581 µM
  relative viability: 0.139
[11]; first compound 0.5 µM
  relative viability: 0.134
[12]; first compound 0.005 µM
  relative viability: 0.879
[12]; first compound 0.01581 µM
  relative viability: 0.222
[12]; first compound 0.05 µM
  relative viability: 0.328
[12]; first compound 0.1581 µM
  relative viability: 0.274
[12]; first compound 0.5 µM
  relative viability: 0.378
[13]; first compound 0.005 µM
  relative viability: 0.536
[13]; first compound 0.01581 µM
  relative viability: 0.316
[13]; first compound 0.05 µM
  relative viability: 0.193
[13]; first compound 0.1581 µM
  relative viability: 0.209
[13]; first compound 0.5 µM
  relative viability: 0.171
[14]; first compound 0.005 µM
  relative viability: 0.141
[14]; first compound 0.01581 µM
  relative viability: 0.121
[14]; first compound 0.05 µM
  relative viability: 0.141
[14]; first compound 0.1581 µM
  relative viability: 0.116
[14]; first compound 0.5 µM
  relative viability: 0.12
[15]; first compound 0.005 µM
  relative viability: 0.597
[15]; first compound 0.01581 µM
  relative viability: 0.723
[15]; first compound 0.05 µM
  relative viability: 0.642
[15]; first compound 0.1581 µM
  relative viability: 0.462
[15]; first compound 0.5 µM
  relative viability: 0.444
[16]; first compound 0.005 µM
  relative viability: 0.64
[16]; first compound 0.01581 µM
  relative viability: 0.547
[16]; first compound 0.05 µM
  relative viability: 0.553
[16]; first compound 0.1581 µM
  relative viability: 0.369
[16]; first compound 0.5 µM
  relative viability: 0.318
[17]; first compound 0.005 µM
  relative viability: 0.812
[17]; first compound 0.01581 µM
  relative viability: 0.685
[17]; first compound 0.05 µM
  relative viability: 0.514
[17]; first compound 0.1581 µM
  relative viability: 0.387
[17]; first compound 0.5 µM
  relative viability: 0.351
[18]; first compound 0.005 µM
  relative viability: 0.218
[18]; first compound 0.01581 µM
  relative viability: 0.216
[18]; first compound 0.05 µM
  relative viability: 0.2
[18]; first compound 0.1581 µM
  relative viability: 0.233
[18]; first compound 0.5 µM
  relative viability: 0.223
[19]; first compound 0.005 µM
  relative viability: 0.805
[19]; first compound 0.01581 µM
  relative viability: 0.873
[19]; first compound 0.05 µM
  relative viability: 0.766
[19]; first compound 0.1581 µM
  relative viability: 0.511
[19]; first compound 0.5 µM
  relative viability: 0.37
[20]; first compound 0.005 µM
  relative viability: 0.172
[20]; first compound 0.01581 µM
  relative viability: 0.133
[20]; first compound 0.05 µM
  relative viability: 0.131
[20]; first compound 0.1581 µM
  relative viability: 0.131
[20]; first compound 0.5 µM
  relative viability: 0.0979
[21]; first compound 0.005 µM
  relative viability: 0.754
[21]; first compound 0.01581 µM
  relative viability: 0.73
[21]; first compound 0.05 µM
  relative viability: 0.782
[21]; first compound 0.1581 µM
  relative viability: 0.453
[21]; first compound 0.5 µM
  relative viability: 0.551
[22]; first compound 0.005 µM
  relative viability: 0.968
[22]; first compound 0.01581 µM
  relative viability: 1.04
[22]; first compound 0.05 µM
  relative viability: 0.977
[22]; first compound 0.1581 µM
  relative viability: 0.38
[22]; first compound 0.5 µM
  relative viability: 0.416
